Test results reported in article PMC6364417, “Kinase inhibitor library screening identifies synergistic drug combinations effective in sensitive and resistant melanoma cells” (Journal of Experimental & Clinical Cancer Research : CR, 2019).

Legend:
Test in all cases: Kinase inhibitor library screening, PrestoBlue cell viability, 1 or 10 μM, 72 h
[1] = tested on: A375-GP cells (Dabrafenib-resistant); settings: A375 GP
[2] = tested on: A375 cells (parental); settings: A375 Parental
[3] = tested on: A375-XP cells (Vemurafenib-resistant); settings: A375 XP
[4] = tested on: 501Mel cells (parental); settings: 501Mel Parental
How it was run: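 Treatment: 72 h with inhibitor. Detection: PrestoBlue, plate reader. Output: viability as % untreated control. Replicates: duplicate minimum. Lines: parental plus Vemurafenib- or Dabrafenib-resistant derivatives.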

[5] = tested on: IGR37-XP cells (Vemurafenib-resistant); settings: IGR37 XP
[6] = tested on: IGR37 cells (parental); settings: IGR37 Parental
[7] = tested on: 501Mel-XP cells (Vemurafenib-resistant); settings: 501Mel XP
[8] = tested on: 501Mel-GP cells (Dabrafenib-resistant); settings: 501Mel GP
[9] = tested on: IGR37-GP cells (Dabrafenib-resistant); settings: IGR37 GP

SMILES: COc1cc2ncnc(Nc3ccc(F)c(Cl)c3)c2cc1NC(=O)/C=C/CN1CCCCC1 [Dacomitinib (PF299804,PF-00299804)]
- cell viability, A375 GP, 1μΜ ([1]; 1μΜ, 72 h, in %): 97.2
- cell viability, A375 GP, 10μΜ ([1]; 10μΜ, 72 h, in %): 1.9
- cell viability, A375 Parental, 1μΜ ([2]; 1μΜ, 72 h, in %): 94.4
- cell viability, A375 Parental, 10μΜ ([2]; 10μΜ, 72 h, in %): 3.4
- cell viability, A375 XP, 1μΜ ([3]; 1μΜ, 72 h, in %): 96.8
- cell viability, A375 XP, 10μΜ ([3]; 10μΜ, 72 h, in %): 1.1
- cell viability, 501Mel Parental, 10μΜ ([4]; 10μΜ, 72 h, in %): 0.5
- cell viability, IGR37 XP, 10μΜ ([5]; 10μΜ, 72 h): 1.3%
- cell viability, IGR37 XP, 1μΜ ([5]; 1μΜ, 72 h, in %): 80.1
- cell viability, IGR37 Parental, 10μΜ ([6]; 10μΜ, 72 h, in %): 1.1
- cell viability, 501Mel XP, 10μΜ ([7]; 10μΜ, 72 h, in %): -0.2
- cell viability, 501Mel GP, 1μΜ ([8]; 1μΜ, 72 h, in %): 106.7
- cell viability, 501Mel GP, 10μΜ ([8]; 10μΜ, 72 h, in %): -0.4
- cell viability, IGR37 GP, 10μΜ ([9]; 10μΜ, 72 h): 2.6%

SMILES: CO[C@@H](C(=O)N1Cc2n[nH]c(NC(=O)c3ccc(N4CCN(C)CC4)cc3)c2C1)c1ccccc1 [Danusertib (PHA-739358)]
- cell viability (kinase inhibitor library screening) ([1]; 1μΜ, 72 h): 48.5%
- cell viability (kinase inhibitor library screening) ([1]; 10μΜ, 72 h): 27.8%
- cell viability (kinase inhibitor library screening) ([2]; 10μΜ, 72 h): 28.0%
- cell viability (kinase inhibitor library screening) ([2]; 1μΜ, 72 h): 51.2%
- cell viability (kinase inhibitor library screening) ([3]; 1μΜ, 72 h): 53.8%
- cell viability (kinase inhibitor library screening) ([3]; 10μΜ, 72 h): 35.5%
- cell viability (kinase inhibitor library screening) ([4]; 1μΜ, 72 h): 94.3%
- cell viability (kinase inhibitor library screening) ([4]; 10μΜ, 72 h): 80.7%
- cell viability (kinase inhibitor library screening) ([5]; 10μΜ, 72 h): 21.3%
- cell viability (kinase inhibitor library screening) ([6]; 10μΜ, 72 h): 59.2%
- cell viability (kinase inhibitor library screening) ([7]; 1μΜ, 72 h): 84.5%
- cell viability (kinase inhibitor library screening) ([7]; 10μΜ, 72 h): 58.4%
- cell viability (kinase inhibitor library screening) ([8]; 1μΜ, 72 h): 94.8%
- cell viability (kinase inhibitor library screening) ([8]; 10μΜ, 72 h): 72.3%
- cell viability (kinase inhibitor library screening) ([9]; 10μΜ, 72 h): 66.0%

SMILES: Cc1nc(Nc2ncc(C(=O)Nc3c(C)cccc3Cl)s2)cc(N2CCN(CCO)CC2)n1 [Dasatinib (BMS-354825)]
- cell viability (kinase inhibitor library screening) ([1]; 1μΜ, in %): 63.7
- cell viability (kinase inhibitor library screening) ([1]; 10μΜ, in %): 48.1
- cell viability (kinase inhibitor library screening) ([2]; 1μΜ, in %): 68.7
- cell viability (kinase inhibitor library screening) ([2]; 10μΜ, in %): 30.8
- cell viability (kinase inhibitor library screening) ([3]; 1μΜ, in %): 70.6
- cell viability (kinase inhibitor library screening) ([3]; 10μΜ, in %): 57.8
- cell viability (kinase inhibitor library screening) ([4]; 1μΜ, in %): 91.7
- cell viability (kinase inhibitor library screening) ([4]; 10μΜ, in %): 73.7
- cell viability (kinase inhibitor library screening) ([5]; 1μΜ, in %): 88.2
- cell viability (kinase inhibitor library screening) ([5]; 10μΜ, in %): 39.8
- cell viability (kinase inhibitor library screening) ([6]; 1μΜ, in %): 98.7
- cell viability (kinase inhibitor library screening) ([6]; 10μΜ, in %): 80.2
- cell viability (kinase inhibitor library screening) ([7]; 1μΜ, in %): 88.2
- cell viability (kinase inhibitor library screening) ([7]; 10μΜ, in %): 63.3
- cell viability (kinase inhibitor library screening) ([8]; 1μΜ, in %): 96.7
- cell viability (kinase inhibitor library screening) ([8]; 10μΜ, in %): 77.1
- cell viability (kinase inhibitor library screening) ([9]; 1μΜ, in %): 91.4
- cell viability (kinase inhibitor library screening) ([9]; 10μΜ, in %): 66.8

SMILES: CO[C@H]1C[C@@H]2CC[C@@H](C)[C@@](O)(O2)C(=O)C(=O)N2CCCC[C@H]2C(=O)O[C@H]([C@H](C)C[C@@H]2CC[C@@H](OP(C)(C)=O)[C@H](OC)C2)CC(=O)[C@H](C)/C=C(\C)[C@@H](O)[C@@H](OC)C(=O)[C@H](C)C[C@H](C)/C=C/C=C/C=C/1C [Deforolimus (Ridaforolimus)]
- Cell viability in kinase inhibitor library screening, A375 GP, 1μΜ ([1]; 1μΜ, 72 h): 79.3
- Cell viability in kinase inhibitor library screening, A375 GP, 10μΜ ([1]; 10μΜ, 72 h): 72.3
- Cell viability in kinase inhibitor library screening, A375 Parental, 10μΜ ([2]; 10μΜ, 72 h): 73.5
- Cell viability in kinase inhibitor library screening, A375 Parental, 1μΜ ([2]; 1μΜ, 72 h): 82.1
- Cell viability in kinase inhibitor library screening, A375 XP, 1μΜ ([3]; 1μΜ, 72 h): 79.9
- Cell viability in kinase inhibitor library screening, A375 XP, 10μΜ ([3]; 10μΜ, 72 h): 76.9
- Cell viability in kinase inhibitor library screening, 501Mel Parental, 1μΜ ([4]; 1μΜ, 72 h, in %): 84.8
- Cell viability in kinase inhibitor library screening, 501Mel Parental, 10μΜ ([4]; 10μΜ, 72 h, in %): 82.7
- Cell viability in kinase inhibitor library screening, IGR37 XP, 10μΜ ([5]; 10μΜ, 72 h): 56.1%
- Cell viability in kinase inhibitor library screening, IGR37 XP, 1μΜ ([5]; 1μΜ, 72 h, in %): 95.0
- Cell viability in kinase inhibitor library screening, IGR37 Parental, 1μΜ ([6]; 1μΜ, 72 h, in %): 82.2
- Cell viability in kinase inhibitor library screening, IGR37 Parental, 10μΜ ([6]; 10μΜ, 72 h, in %): 86.0
- Cell viability in kinase inhibitor library screening, 501Mel XP, 1μΜ ([7]; 1μΜ, 72 h, in %): 54.3
- Cell viability in kinase inhibitor library screening, 501Mel XP, 10μΜ ([7]; 10μΜ, 72 h, in %): 40.7
- Cell viability in kinase inhibitor library screening, 501Mel GP, 1μΜ ([8]; 1μΜ, 72 h, in %): 66.5
- Cell viability in kinase inhibitor library screening, 501Mel GP, 10μΜ ([8]; 10μΜ, 72 h, in %): 55.6
- Cell viability in kinase inhibitor library screening, IGR37 GP, 10μΜ ([9]; 10μΜ, 72 h): 76.8%
- Cell viability in kinase inhibitor library screening, IGR37 GP, 1μΜ ([9]; 1μΜ, 72 h, in %): 90.2
